How the values were obtained:
[1] = Caco-2 cell monolayer A→B permeability assay; settings: human
From the text: The Caco-2 cell monolayer is an in vitro tissue culture model of the intestinal epithelium. These cells are of human colonic origin and become polarized, fully differentiated enterocytes in 2-3 weeks. Once differentiated, these cells have tight junctions and express various biochemical processes such as active efflux transporters including P-glycoprotein (P-gp). With this model, it is possible to determine the apparent permeability (Papp) of a compound across the polarized Caco-2 cell monolayer.
An A→B Assay is performed with Caco-2 cell monolayers to determine compound Papp from A chamber to B chamber. This Papp is representative of luminal (gut) to serosal (blood) compound transport across intestinal epithelium that may be seen during intestinal absorption.

[2] = Oral absorption profile, time to Cmax in dogs; settings: dog, in vivo
[3] = Oral dosing in portal vein-cannulated rats, portal vein plasma; assay type: in vivo; settings: oral dosing 30 and 200 mg/kg, over a four-hour time period
[4] = Solubility and intrinsic dissolution; assay type: physicochemical
in vivo = settings: rat, po
[5] = biological target: full-length glucocorticoid (GR) protein; assay: Glucocorticoid receptor fluorescence polarization ligand binding (GRFP) assay; settings: additional result (footnote a)
From the text: The glucocorticoid receptor fluorescence polarization ligand binding (GRFP) assay is used to evaluate direct binding of testing compounds to full-length glucocorticoid (GR) protein. Reagents for this assay are purchased from Invitrogen in a test kit. A fluorescent labeled GR ligand is used as a fluorescent tracer and test compounds compete with the fluorescent tracer for GR binding. The change in polarization value in the presence of test compounds is due to binding of test compounds to GR and is used to determine IC50 and relative binding affinity of test compounds for GR.

IL-6 = assay: IL-1β-stimulated IL-6 production in A549 lung epithelial cells; assay type: cell-based, Human
Procedure: Human A549 lung epithelial cells (American Type Culture Collection, Rockville, MD) were cultured in Kaighn's F-12K medium with penicillin-streptomycin (10 U/mL) and 10% heat-inactivated fetal bovine serum (all from Invitrogen, Grand Island, NY). A549 cells were plated at a density of 30,000 cells/well in 96-well plates and incubated overnight at 37°C and with 5% CO2. The cells were serum-starved by replacing the growth medium with serum-free Kaighn's F-12K medium with penicillin-streptomycin (10 U/mL) and, again, incubating overnight at 37°C and with 5% CO2. On the third day, the medium was replaced with fresh serum-free medium and the cells were incubated with or without compound (vehicle was DMSO at 0.1 % maximum concentration) for approximately 1 hour and then stimulated with 1 ng/mL recombinant human IL-1β (R&D Systems, Minneapolis, MN) for 20 hours at 37°C and with 5% CO2. Cell supernatants were collected for determination of IL-6 levels using MSD (Meso Scale Discovery, Gaithersburg, MD) 96-well Single Spot plates as per the manufacturer's instructions. Plates were read with an MSD Sector Imager 6000. […] Percent inhibition for each compound concentration, relative to these controls, was calculated using Excel (Microsoft, Redmond, WA). IC50 values were generated using GraFit 5.0 data analysis software (Erithacus Software Ltd., Surrey, UK).

[6] = Oral absorption profile in rats

For `Cc1ncccc1NC(=O)c1ccc2c(c1)CC[C@@H]1C[C@@](OP(=O)(O)O)(C(F)(F)F)CC[C@@]21Cc1ccccc1` [Example 2, (2R,4αS,10αR)-4α-benzyl-7-((2-methylpyridin-3-yl)carbamoyl)-2-(trifluoromethyl)-1,2,3,4,4α,9,10,10α-octahydrophenanthren-2-yl dihydrogen phosphate], the Papp A→B [1] was 1.15 ×10⁻⁶ cm/s, the Tmax [2] was 48 min and the “detection in portal vein plasma samples” value [3] was “detection of Example 1, but not Example 2”. For the same compound, the “Example 1 in apical and basolateral compartments” value (Caco-2 cell monolayer) was “significant elevation of Example 1 in both the apical and basolateral compartments”, the “solubility and intrinsic dissolution” value [4] was “enhanced solubility and intrinsic dissolution” and the AUC (in vivo) was 1610 ng·h/mL. For the same compound, the IC50 [5] was 42 nM, the “IL-6 % Inhibition” value (IL-6; A549 cells, additional result (footnote a)) was 80% and the inhibition (IL-6; Homo sapiens, A549) was 60.2%. The IC50 (IL-6; Homo sapiens, A549 cells, additional result (footnote a)) was 17 nM, the “bioavailability F” value [6] was 59% and the Cmax ([6]; oral) was 590 ng/mL.

— patent EP2114888B1, “TRICYCLIC COMPOUNDS AND THEIR USE AS GLUCOCORTICOID RECEPTOR MODULATORS” (priority 2007, dated 2008)
